Here are results for twelve compounds from patent publication US9187472B2 (AbbVie Inc., priority 2012, dated 2015).

Molecules are shown by their SMILES.

One experiment deals with NAMPT (Homo sapiens, UniProt P43490). The experiment can be described thus: TR-FRET Binding Assay of NAMPT with PRPP. Particulars: with 200 μM PRPP and 2.5 mM ATP; 2 nM NAMPT, 2 nM probe, 16 hours equilibration. A digest of the protocol: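 Read-out is TR-FRET after a 16 h equilibration allowing possible compound modification by the enzyme. Final mix: 2 nM NAMPT, 2 nM probe, 1 nM Tb-anti-His antibody, 200 μM PRPP, 2.5 mM ATP, 2% DMSO.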
Sequence of NAMPT (P43490 whole entry): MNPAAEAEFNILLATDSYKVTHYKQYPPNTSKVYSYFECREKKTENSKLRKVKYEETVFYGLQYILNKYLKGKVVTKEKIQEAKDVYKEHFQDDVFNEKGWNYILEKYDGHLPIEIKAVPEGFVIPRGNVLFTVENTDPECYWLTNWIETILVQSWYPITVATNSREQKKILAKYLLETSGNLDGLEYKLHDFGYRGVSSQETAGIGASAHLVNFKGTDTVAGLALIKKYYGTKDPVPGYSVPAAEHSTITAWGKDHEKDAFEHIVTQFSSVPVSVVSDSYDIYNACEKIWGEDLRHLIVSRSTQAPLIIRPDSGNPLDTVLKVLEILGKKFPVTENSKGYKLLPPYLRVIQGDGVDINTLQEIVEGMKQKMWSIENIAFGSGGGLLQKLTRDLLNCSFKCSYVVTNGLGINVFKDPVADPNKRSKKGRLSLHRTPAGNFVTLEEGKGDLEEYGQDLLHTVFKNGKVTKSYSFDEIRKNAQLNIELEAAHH

In the next experiment the test system is PC3 cells. Briefly: NAMPT Cell Proliferation Assay. The conditions noted are these: Homo sapiens, PC-3, 120 h, 5 days incubation, cell viability by Cell Titer Glo. Type of experiment: cell-based. In outline: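 IC50 values derive from sigmoidal dose-response fits of percent inhibition of PC3 viability, measured by luminescence after 5 days of compound treatment. Cells (500/well, RPMI containing 10% heat-inactivated FBS) are allowed to attach overnight, and compounds are tested at 10-fold dilutions between 10 μM and 1×10^−5 μM.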

The target in experiment [1] is NAMPT (human, recombinant, C-terminally His-tagged) (Homo sapiens, UniProt P43490). The experiment can be described thus: Time-Resolved Fluorescence Resonance Energy Transfer (TR-FRET) Binding Assay of NAMPT. Particulars: without substrates; 6.8 nM NAMPT, 200 nM probe, 3 hours equilibration. A digest of the protocol: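 Competitive binding against an Oregon Green 488 tracer (200 nM), 6.8 nM His-tagged enzyme, 1 nM Tb antibody, 2% DMSO, 3 h at RT. IC50 derived from TR-FRET ratios.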
Sequence of NAMPT (human, recombinant, C-terminally His-tagged) (P43490 whole entry): as above
A general note: Time-resolved FRET reads energy transfer from a long-lived donor to a nearby acceptor.

A word on the IC50: it is the concentration at which inhibition is half-maximal. As to `CC(C)(O)C(=O)N1CCC(c2ccc(C(=O)NCc3ccn4ccnc4c3)cc2)C1` (stereo not drawn) [Example 372, 4-[1-(2-hydroxy-2-methylpropanoyl)pyrrolidin-3-yl]-N-(imidazo[1,2-a]pyridin-7-ylmethyl)benzamide], the IC50 was found to be 0.46 nM at NAMPT, 868 nM in the experiment with PC3 cells and 2440 nM in experiment [1].
The matching figures for `O=C(NCc1ccn2ccnc2c1)c1ccc(C2CCN(C(=O)[C@H]3CCCO3)C2)cc1` (stereo partly drawn) [Example 373, N-(imidazo[1,2-a]pyridin-7-ylmethyl)-4-{1-[(2R)-tetrahydrofuran-2-ylcarbonyl]pyrrolidin-3-yl}benzamide]: 0.36 nM, 585 nM and 3040 nM.
On to `O=C(NCc1ccn2ccnc2c1)c1ccc(C2CCN(C(=O)[C@@H]3CCCO3)C2)cc1` (stereo partly drawn) [Example 374, N-(imidazo[1,2-a]pyridin-7-ylmethyl)-4-{1-[(2S)-tetrahydrofuran-2-ylcarbonyl]pyrrolidin-3-yl}benzamide], for which the IC50 worked out at 0.292 nM at NAMPT, 792 nM in the experiment with PC3 cells and 1670 nM in experiment [1].
For `O=C(NCc1ccn2ccnc2c1)c1ccc(C2CCN(C(=O)[C@H]3CCOC3)C2)cc1` (stereo partly drawn) [Example 375, N-(imidazo[1,2-a]pyridin-7-ylmethyl)-4-{1-[(3S)-tetrahydrofuran-3-ylcarbonyl]pyrrolidin-3-yl}benzamide], in that order: 0.241 nM, above 10000 nM and 986 nM.
For `O=C(NCc1ccn2ccnc2c1)c1ccc(C2CCN(C(=O)C3CCOCC3)C2)cc1` (stereo not drawn) [Example 376, N-(imidazo[1,2-a]pyridin-7-ylmethyl)-4-[1-(tetrahydro-2H-pyran-4-ylcarbonyl)pyrrolidin-3-yl]benzamide], in that order: 0.305 nM, above 10000 nM and 1050 nM.
`O=C(NCc1ccn2ccnc2c1)c1ccc(C2CCN(C(=O)C3COCCO3)C2)cc1` (stereo not drawn) [Example 377, 4-[1-(1,4-dioxan-2-ylcarbonyl)pyrrolidin-3-yl]-N-(imidazo[1,2-a]pyridin-7-ylmethyl)benzamide]: the IC50 on NAMPT is 0.275 nM; in the experiment with PC3 cells, above 10000 nM; in experiment [1] it was 1670 nM.
As for `O=C(NCc1ccn2ccnc2c1)c1ccc(C2CCN(C(=O)CC3CCOCC3)C2)cc1` (stereo not drawn) [Example 378, N-(imidazo[1,2-a]pyridin-7-ylmethyl)-4-[1-(tetrahydro-2H-pyran-4-ylacetyl)pyrrolidin-3-yl]benzamide], the concentration for half-maximal inhibition (IC50) at NAMPT is 0.169 nM; in the experiment with PC3 cells, above 10000 nM; in experiment [1] it was 897 nM.
`CC(=O)N1CCC(c2ccc(NC(=O)NCc3ccn4ccnc4c3)cc2)C1` (stereo not drawn) [Example 379, 1-[4-(1-acetylpyrrolidin-3-yl)phenyl]-3-(imidazo[1,2-a]pyridin-7-ylmethyl)urea]: the figures for the IC50 (at NAMPT; in the experiment on PC3 cells; in experiment [1]) were 0.29 nM, 370 nM and 279 nM, respectively.
The matching figures for `CC(C)C(=O)N1CCC(c2ccc(NC(=O)NCc3ccn4ccnc4c3)cc2)C1` (stereo not drawn) [Example 380, 1-(imidazo[1,2-a]pyridin-7-ylmethyl)-3-{4-[1-(2-methylpropanoyl)pyrrolidin-3-yl]phenyl}urea]: 0.251 nM, 40 nM and 179 nM.
For `CC[C@H](C)C(=O)N1CCC(c2ccc(NC(=O)NCc3ccn4ccnc4c3)cc2)C1` (stereo partly drawn) [Example 381], in that order: 0.259 nM, 17.3 nM and 84.1 nM.
For `O=C(NCc1ccn2ccnc2c1)Nc1ccc(C2CCN(C(=O)CC3CC3)C2)cc1` (stereo not drawn) [Example 382], in that order: 0.204 nM, 83.8 nM and 119 nM.
On to `O=C(NCc1ccn2ccnc2c1)Nc1ccc(C2CCN(C(=O)c3ccccc3)C2)cc1` (stereo not drawn) [Example 383, 1-[4-(1-benzoylpyrrolidin-3-yl)phenyl]-3-(imidazo[1,2-a]pyridin-7-ylmethyl)urea], for which the IC50 is 0.225 nM at NAMPT, 13.3 nM in the experiment on PC3 cells and 49.5 nM in experiment [1].
